These results are taken from PMC5322338 (Scientific Reports, 2017).

One data set deals with Trypsin. The data set can be described thus: trypsin in 0.05 M Tris, 0.15 M NaCl, 0.01% Triton X100, pH 7.6. Conditions: 37 °C, up to 30 min.
Data set [1] can be described thus: Fluorescence quantum yield. To be noted: quenched substrates versus free fluorophores.
Description: We determined the absorption spectrum of the DNP group and the emission spectrum of the ACC fluorophore in four different assay buffers. […] To determine whether this spectral overlap is sufficient for ACC fluorophore quenching, we synthesized ACC-GDEVD-OH, a caspase substrate cleavage product, and compared its fluorescence with that of the full-length substrate ACC-GDEVD*GVK(DNP)D at various concentrations (Fig. 3).
The subject of data set [2] is caspase-3. The data set can be described thus: caspase-3 in 20 mM Pipes, 0.1 M NaCl, 1 mM EDTA, 10 mM DTT, 10% (w/v) sucrose, pH 7.2 to 7.4. Conditions: human, 37 °C, up to 30 min.
Data set [3] has as its system caspase-7. The data set can be described thus: caspase-7 in 20 mM Pipes, 0.1 M NaCl, 1 mM EDTA, 10 mM DTT, 10% (w/v) sucrose, pH 7.2 to 7.4. Conditions: human, 37 °C, up to 30 min.
Data set [4] has as its system caspase-8. Nature of the data set: caspase-8 in caspase buffer supplemented with 1 M sodium citrate. To be noted: human, 37 °C, up to 30 min.
A further data set deals with legumain. The data set can be described thus: legumain in 40 mM citric acid, 1 mM EDTA, 120 mM Na2HPO4, 10 mM DTT, pH 5.8. Conditions: human, 37 °C, up to 30 min.
For a further data set, the system named is caspase-6. The data set can be described thus: caspase-6 in caspase buffer, IQF library screening. Conditions: human, 37 °C, up to 30 min.
Data set [5] deals with caspase-3. The data set can be described thus: caspase-3 in caspase buffer, IQF library screening and kinetics. Conditions: human, 37 °C, up to 30 min.
Data set [6] concerns caspase-7. Nature of the data set: caspase-7 in caspase buffer, IQF library screening and kinetics. To be noted: human, 37 °C, up to 30 min.
The next data set concerns MMP9. Nature of the data set: MMP9 in 0.1 M Tris-HCl, 0.1 M NaCl, 10 mM CaCl2, pH 7.5. Conditions: 37 °C, up to 30 min.
A further data set has as its system MMP2. The data set can be described thus: MMP2 in 0.1 M Tris-HCl, 0.1 M NaCl, 10 mM CaCl2, pH 7.5. Conditions: 37 °C, up to 30 min.
The subject of data set [7] is Human neutrophil elastase (HNE). Nature of the data set: neutrophil elastase in 0.1 M HEPES and 0.5 M NaCl at pH 7.5. Conditions: 37 °C, up to 30 min.
In data set [8] the target is T1, caspase-7 (Homo sapiens, UniProt P55210).
T1 construct: made in house
T1 sequence (P55210 24-198 limits assumed): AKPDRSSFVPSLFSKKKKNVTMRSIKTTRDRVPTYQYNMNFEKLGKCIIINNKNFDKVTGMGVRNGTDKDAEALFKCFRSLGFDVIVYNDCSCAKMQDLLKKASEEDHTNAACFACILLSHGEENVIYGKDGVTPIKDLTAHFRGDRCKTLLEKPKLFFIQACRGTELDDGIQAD
T1 sequence (P55210 207-303 limits assumed): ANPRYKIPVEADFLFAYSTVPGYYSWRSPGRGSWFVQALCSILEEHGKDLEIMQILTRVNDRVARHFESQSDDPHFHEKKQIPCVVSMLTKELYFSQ
The data set can be described thus: IQF substrate hydrolysis kinetics with caspase-7. In kind it is biochemical. Conditions: ACC/Lys(DNP) substrate; caspase-7 10 nM; substrate 1-50 μM; Pipes buffer pH 7.2-7.4; 37 °C; ex 355/em 460 nm; mean of at least three, SD <10%. As to the method:
(§1) All kinetic measurements were performed using a Spectra Max Gemini XPS spectrofluorimeter (Molecular Devices) at 37 °C. For the substrates with the new donor acceptor pair, ACC/DNP, the excitation wavelength was 355 nm, and the emission wavelength was 460 nm; for MCA/DNP, the corresponding values were 325 and 420 nm, respectively. The substrate concentrations were varied, and the enzyme concentration was kept constant in each assay; the total reaction volume was 100 μl. Measurements were conducted for 30 min, and only the linear part of the progress curve was used to determine the reaction velocity. The measurements were repeated, and the data presented are the average of at least three measurements. The catalytic parameters kcat and KM were established using GraphPad Prism software to directly fit the initial velocities and initial substrate concentrations to the Michaelis-Menten equation using non-linear regression analysis.
(§2) Caspase assays were performed in a buffer containing 20 mM Pipes, 0.1 M NaCl, 1 mM EDTA, 10 mM DTT, and 10% (w/v) sucrose at pH 7.2 to 7.4[61]. The buffer used for caspase-8, caspase-9 and caspase-10 was supplemented with 1 M sodium citrate. Each caspase was incubated with assay buffer for 30 min at 37 °C before the substrates were added. For caspase-3, the concentration of substrates containing ACC or MCA on the measurement plate ranged from 1 to 50 μM, and the enzyme concentration ranged from 1 to 3 nM. For caspase-7, the concentration of substrates containing ACC or MCA on the measurement plate ranged from 1 to 50 μM, and the enzyme concentration ranged from 10 to 30 nM. For caspase-8, the concentration of a substrates containing ACC or MCA on the measurement plate ranged from 4 to 80 μM, and the enzyme concentration ranged from 20 to 50 nM.
(§3) To obtain further insight into the caspase P1-P1′ preferences, we determined the kinetic parameters for selected IQF substrates. The kinetic analysis was performed in a similar manner to that described above (Substrate Kinetics). The buffers used for caspase-8, caspase-9, and caspase-10 were supplemented with 1.0 M sodium citrate. The enzyme concentrations were as follows: caspase-3, 6 nM; caspase-7, 25 nM; caspase-8, 30–60 nM; caspase-9, 20–140 nM; and caspase-10, 25–125 nM. When testing initiator caspases, the higher enzyme concentration was used for non-optimal LEHE/X substrates.

The target in data set [9] is T2, caspase-3 (Homo sapiens, UniProt P42574).
T2 construct: made in house
T2 sequence (P42574 29-175 limits assumed): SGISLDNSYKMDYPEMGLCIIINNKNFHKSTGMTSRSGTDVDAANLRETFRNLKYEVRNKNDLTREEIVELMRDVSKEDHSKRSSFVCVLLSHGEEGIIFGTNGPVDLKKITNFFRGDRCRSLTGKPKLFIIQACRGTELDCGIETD
T2 sequence (P42574 176-277 limits assumed): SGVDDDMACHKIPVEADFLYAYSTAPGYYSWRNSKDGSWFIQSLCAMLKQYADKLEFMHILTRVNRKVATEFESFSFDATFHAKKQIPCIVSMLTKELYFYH
The data set can be described thus: IQF substrate hydrolysis kinetics with caspase-3. In kind it is biochemical. Conditions: ACC/Lys(DNP) substrate; caspase-3 1.0 nM; substrate 1-50 μM; Pipes buffer pH 7.2-7.4; 37 °C; ex 355/em 460 nm; mean of at least three, SD <10%. The procedure:
as §1, §2, §3

The target in data set [10] is T3, caspase-8 (Homo sapiens, UniProt Q14790).
T3 construct: made in house
T3 sequence (Q14790 217-374 limits assumed): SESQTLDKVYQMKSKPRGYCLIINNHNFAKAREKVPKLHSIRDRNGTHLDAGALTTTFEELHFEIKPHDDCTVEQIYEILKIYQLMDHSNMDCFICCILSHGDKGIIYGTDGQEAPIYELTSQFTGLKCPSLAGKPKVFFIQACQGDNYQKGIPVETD
T3 sequence (Q14790 385-479 limits assumed): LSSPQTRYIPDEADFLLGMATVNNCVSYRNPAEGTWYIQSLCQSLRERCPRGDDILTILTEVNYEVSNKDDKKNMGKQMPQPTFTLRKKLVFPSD
Nature of the data set: IQF substrate hydrolysis kinetics with caspase-8. In kind it is biochemical. Conditions: ACC/Lys(DNP) substrate; caspase-8 20 nM; substrate 4-80 μM; Pipes buffer pH 7.2-7.4 with 1 M sodium citrate; 37 °C; ex 355/em 460 nm; mean of at least three, SD <10%. The procedure: as §1, §2, §3

With “ACC-GGLS(P1)*IVK(DNP)G-NH2 [ACC-GGLS(P1)*IVK(DNP)G-NH2, P1 = Ornithine]”, the cleaved bond entry with Trypsin is “Ornithine-I”.

Consider `NC(=O)Cc1cc(=O)oc2cc(N)ccc12` [ACC, 7-amino-4-carbamoylmethylcoumarin], for which the “fluorescence quantum yield (ϕF)” value in data set [1] is given as 0.861.

With “ACC-GGLS(P1)*IVK(DNP)G-NH2 [ACC-GGLS(P1)*IVK(DNP)G-NH2, P1 = Arginine]”, the cleaved bond result in the data set on Trypsin is listed as “Arginine-I”.

On to ACC-GDEVD*GVK(dnp)D-NH2, for which the cleaved bond result with caspase-3 [2], with caspase-7 [3] and in the data set with caspase-8 [4] was “D-G” each time.

On to MCA-GPTN*KVK(dnp)R-NH2, for which, in the data set with legumain, the cleaved bond entry is “N-K”.

For the compound ACC-GDEVE/XKK(dnp)G-NH2 [DEVE/G], the cleaved bond result in the data set on caspase-6 is “E-Gly”; in the data set with caspase-3 [5] it was “E-G”; with caspase-7 [6] it was “E-G”.

For the compound ACC-GPLG*LK(dnp)AR-NH2, the cleaved bond entry in the data set on MMP9 and with MMP2 was “G-L” throughout.

Turning to `COc1ccc2c(CC(=O)O)cc(=O)oc2c1` [MCA, 7-methoxy-coumarin-4-yl acetic acid], the “fluorescence quantum yield (ϕF)” value in data set [1] is on record as 0.718.

Take MCA-GDEVD*GVK(dnp)D-NH2: the cleaved bond entry with caspase-3 [2], in the data set on caspase-7 [3] and in the data set with caspase-8 [4] was “D-G” in each case.

In the case of “ACC-GGLS(P1)*IVK(DNP)G-NH2 [ACC-GGLS(P1)*IVK(DNP)G-NH2, P1 = Citrulline]”, in the data set on Trypsin, the cleaved bond result is reported as “Citrulline-I”.

As to ACC-GAEPV*SLK(dnp)L-NH2, the cleaved bond entry in data set [7] is listed as “V-S”.

With MCA-GPLG*LK(dnp)AR-NH2, the cleaved bond result with MMP9 and in the data set on MMP2 was “G-L” throughout.

In the case of “ACC-GGLS(P1)*IVK(DNP)G-NH2 [ACC-GGLS(P1)*IVK(DNP)G-NH2, P1 = Lysine]”, the cleaved bond result in the data set with Trypsin was “Lysine-I”.

In the case of ACC-GGLS(P1)*IVK(DNP)G-NH2, the not cleaved entry in the data set with Trypsin is given as “No measurable hydrolysis”.

What is called Km is the substrate concentration at which the rate is half of its maximum. For orientation: kcat means the number of substrate molecules converted per active site and unit of time at saturation. “ACC-GDEVD*GVK(dnp)D-NH2 [ACC/Lys(DNP) internally quenched fluorescent substrate for caspases]”: on caspase-7 [8], the Km worked out at 8.36 µM, the kcat is 0.47 s⁻¹ and the kcat/KM is 56 800 M^−1s^−1. In addition, at caspase-3 [9], the Km amounted to 6.74 µM, the kcat amounted to 7.52 s⁻¹ and the kcat/KM is listed as 1 116 000 M^−1s^−1. In addition, on caspase-8 [10], the Km was determined as 11 µM, the kcat was determined as 0.32 s⁻¹ and the kcat/KM was 29 400 M^−1s^−1.

As for MCA-GAEPV*SLK(dnp)L-NH2, in data set [7], the cleaved bond entry was “V-S”.

In the case of ACC-GPTN*KVK(dnp)R-NH2, the cleaved bond entry in the data set on legumain was “N-K”.

Turning to ACC-GDEVE/XKK(dnp)G-NH2 [DEVE/A], the cleaved bond result in the data set on caspase-6 was “E-Ala”; in the data set on caspase-3 [5], “E-A”; in the data set with caspase-7 [6], “E-A”.
